Data reported in publication PMC6022709 (BMC Research Notes, 2018).
Converted amounts (≈) assume the structure as drawn. Numbered stars: 1 amine (or outer) side, 2 acyl side, 3 side chain; on linkers, the order of the positions; unused ones are H or OH. Square brackets hold non-standard residues; d marks the D form. Peptide text beside a SMILES is read from it. ξ: configuration not given here. X1 = CC[C@H](C)[C@@H](C(=O)[*:2])N(O)[*:1]; ξPiz(1,6-dehydro) = O=C(O)C1CCC=NN1; ξN(OH)Ile(3ξ) = CCC(C)C(NO)C(=O)O; dNMeF = CN[C@H](Cc1ccccc1)C(=O)O; NMeF = CN[CH](Cc1ccccc1)C(=O)O; X2 = O=C(C1CCCNN1[*:1])[*:2]; Pip = O=C(O)[C@@H]1CCCCN1; dPip = O=C(O)[C@H]1CCCCN1

What was measured:
M. tuberculosis WT = type: cell-based, Mycobacterium tuberculosis
[1] = system: M. tuberculosis H37Rv-LP (ATCC 25618) expressing a red fluorescent protein; details: for MIC90: H37Rv
[2] = system: M. tuberculosis H37Rv-LP (ATCC 25618) expressing a red fluorescent protein; experiment: microbe, parasite or virus in culture; details: Mycobacterium tuberculosis

| SMILES | MIC90 [1] [µM] | further results |
| --- | --- | --- |
| CC(C)CC1C(=O)N2NCCCC2C(=O)N2NCCCC2C(=O)N(C)C(Cc2ccccc2)C(=O)N2CCCC2C(=O)NC(Cc2ccccc2)C(=O)N1O (stereo not drawn) [Compound 1, cyclo[N-(Me)Phe-Pro-Phe-N-(OH)Leu-Piz-Piz]] | 2.3 ± 0.5 (≈ 1.75 µg/mL) | MIC99 (M. tuberculosis WT): 1.6 µM (≈ 1.21 µg/mL) |
| CCC(C)C1C(=O)N2NCCCC2C(=O)N2NCCCC2C(=O)N(C)C(Cc2ccccc2)C(=O)N2CCCC2C(=O)NC(Cc2ccccc2)C(=O)N1O (stereo not drawn) [Compound 2] (cyclo([ξN(OH)Ile(3ξ)][X2][X2][NMeF]PF); configuration not given here) | 2.8 ± 0.8 (≈ 2.12 µg/mL) |  |
| CC(C)CC1C(=O)N2NCCCC2C(=O)N2NCCCC2C(=O)N(C)C(Cc2ccccc2)C(=O)N2CCCC2C(=O)NC(C(C)C)C(=O)N1O (stereo not drawn) [Compound 3] | 8.9 ± 1.8 (≈ 6.33 µg/mL) | MIC99 (M. tuberculosis WT): 0.8 µM (≈ 0.569 µg/mL) |
| CCC(C)C1C(=O)N2CCCC2C(=O)NC(CC(C)C)C(=O)N(O)C(CC(C)C)C(=O)N2NCCCC2C(=O)N2NCCCC2C(=O)N1C (stereo not drawn) [Compound 4] | 7.3 ± 1.9 (≈ 5.04 µg/mL) |  |
| CC[C@H](C)[C@H]1C(=O)N2NCCC[C@@H]2C(=O)N2NCCC[C@H]2C(=O)N(C)[C@H](Cc2ccccc2)C(=O)N2CCC[C@H]2C(=O)N[C@H](Cc2ccccc2)C(=O)N1CC(C)=O [Compound 5] | 8.2 ± 1.2 (≈ 6.55 µg/mL) |  |
| CCC(C)C1NC(=O)C(Cc2ccccc2)NC(=O)C2CCCN2C(=O)C(Cc2ccccc2)N(C)C(=O)C2CCC=NN2C(=O)C2CCC=NN2C1=O (stereo not drawn) [Compound 7] (cyclo([ξPiz(1,6-dehydro)][ξPiz(1,6-dehydro)][NMeF]PFI); configuration not given here) | > 20 |  |
| CC[C@H](C)[C@H]1C(=O)N2CCCC[C@@H]2C(=O)N2CCCC[C@H]2C(=O)N(C)[C@H](Cc2ccccc2)C(=O)N2CCC[C@H]2C(=O)N[C@H](Cc2ccccc2)C(=O)N1O [Compound 15] (cyclo([dNMeF]P[dF][X1][dPip][Pip])) | > 20 | anti-tubercular activity (in words) [1]: loss of anti-tubercular activity |
| CCCC1C(=O)N2CCCC2C(=O)NC(CC(C)C)C(=O)N(O)C(CC(C)C)C(=O)N2NCCCC2C(=O)N2NCCCC2C(=O)N1C (stereo not drawn) [Compound 16] | > 20 |  |
| CO[C@H]1/C=C/O[C@@]2(C)Oc3c(C)c(O)c4c(O)c(c(/C=N/N5CCN(C)CC5)c(O)c4c3C2=O)NC(=O)/C(C)=C\C=C\[C@H](C)[C@H](O)[C@@H](C)[C@@H](O)[C@@H](C)[C@H](OC(C)=O)[C@@H]1C [Rifampicin] |  | MIC [2]: 0.0077 µM (≈ 0.00634 µg/mL) |
